The results in this text go back to patent publication US12344599B2, “Prodigiosin analogs and methods of use” (Institute For Cancer Research, priority 2016, dated 2025).

Molecules are shown by their SMILES. “Also recorded” adds a separate entry of the source.

One assay has as its system DLD1. Kind of assay: CellTiterGlo cell viability assay, DLD1. It is filed as cell-based. The conditions noted are these: Homo sapiens, DLD-1; DLD1, colorectal cancer, p53 S241F, 72 hours. How it is done:
(§1) • 1) Cell lines: HT29, SW480, DLD-1, HCT116, and p53-null HCT116 cells, H1975, MDA-MD-231, U251, FaDu, CAL-27, PANC-1, Aspc-1, and MRC5 were obtained from the ATCC and cultured as recommended. Cells were regularly authenticated by bioluminescence, growth, and morphologic observation. The cells were routinely examined for Mycoplasma and all cell lines underwent STR authentication. • 2) Western blotting: After treatment, protein lysates were collected for Western blot analysis. 15 μg of protein was used for SDS-PAGE. After primary and secondary antibody incubations, the signal was detected by chemiluminescent detection kit, imaged by Syngene (Imgen Technologies). […] The cell viability was assessed by CellTiterGlo bioluminescent cell proliferation assay (Promega), following the manufacturer's protocol. Bioluminescence imaging was measured using the IVIS imager. Percentage of cell viability (mean±SEM) at each dose was calculated against the respective DMSO control. The IC50 values were determined from the sigmoidal dose-response curves using GraphPad Prims4. • 4) Caspase activity assay: Cells were seeded in 96-well plate (1×10^4 cells/well). […] The caspase 3/7 activity was assessed by Caspase-Glo® 3/7 Assay kit (Promega), following the manufacturer's protocol. Bioluminescence imaging was measured using the IVIS imager. […]

For another assay, the system named is HCT116 p53−/−. The experiment in a line: CellTiterGlo cell viability assay, HCT116 p53−/−. In kind it is cell-based. The conditions noted are these: Homo sapiens, HCT-116, colorectal cancer, p53 null, 72 hours. The procedure:
as §1
In general terms: In ATP-based viability assays light output follows the ATP content of the culture.

The subject of the next assay is FaDu. Kind of assay: CellTiterGlo cell viability assay, FaDu. The conditions noted are these: Homo sapiens, head & neck squamous cell carcinoma, p53 R248L, 72 hours. In kind it is cell-based. The procedure:
as §1

The test system of the next assay is PANC-1. The experiment in a line: CellTiterGlo cell viability assay, PANC-1. In kind it is cell-based. The conditions noted are these: Homo sapiens; PANC-1, pancreatic cancer, p53 R273H, 72 hours. The procedure:
as §1

The test system of another assay is MDA-MB-468. Kind of assay: CellTiterGlo cell viability assay, MDA-MB-468. It is filed as cell-based. The conditions noted are these: Homo sapiens; MDA-MB-468, breast cancer, p53 R273H, 72 hours.
For another assay, the system named is H1975. Kind of assay: CellTiterGlo cell viability assay, H1975. In kind it is cell-based. The conditions noted are these: Homo sapiens, NCI-H1975; H1975, NSCLC, p53 R273H, 72 hours. The procedure:
as §1

The subject of assay [1] is human cancer cells with mutant p53. The experiment in a line: CellTiterGlo cell viability assay, panel of cancer cell lines. In kind it is cell-based. The procedure: as §1
The next assay has as its system HT29 cells. Kind of assay: qRT-PCR of p53 target gene mRNA, HT29. It is filed as cell-based, human. The conditions noted are these: HT29, 1 μM, 8 and 19 hours post-treatment. How it is done: as §1
In general terms: In qPCR the cycle at which signal appears reflects the starting amount.

For assay [2], the system named is PUMA and DR5 in HT29 and HCT116 p53−/− cell lines. Kind of assay: Western blot of PUMA and DR5, comparison with regorafenib. It is filed as cell-based, human. The conditions noted are these: 4 μM, 24-hour time point. The procedure: After treatment, protein lysates were collected for Western blot analysis. A total of […] of protein was used for SDS-PAGE. After primary and secondary antibody incubations, the signal was detected by a chemiluminescence detection kit, imaged by Syngene (Imgen Technologies). Antibodies for PUMA (for IHC), p53 (Santa Cruz Biotechnology), caspase 8, cleaved caspase 8, caspase 9, caspase 3, cleavage PARP, eIF2α, p-eIF2α (Ser51), CHOP, ATF4, DR5, FOXO3a, p-FOXO3a (Ser253), NF-κB p65, p-NF-κB p65 (Ser536), c-Jun, p-c-Jun (Ser63), JNK, p-JNK (Thr183/Tyr185), PUMA (for WB), c-Myc, phosphor-S62-cMyc (Cell Signaling Technology), Noxa, p21 (Calbiochem), p73 (Bethyl laboratories Inc), Ran (BD Biosciences), […] (Sigma).
Regorafenib is an FDA-approved drug for treatment of metastatic colorectal cancer, advanced gastrointestinal stromal tumors and hepatocellular carcinoma. Regorafenib inhibits ERK and leads to the induction of PUMA through the GSK3β/NF-κB axis and induces PUMA-mediated apoptosis in colon cancer cell lines (Chen et al., Clin Cancer Res, 2014, 20, 3472-3484). PG3-Oc was compared with regorafenib in the induction of PUMA and DR5. Regorafenib (40 μM and 24 hours treatment) was used as a control, as previously reported (Chen et al., Clin Cancer Res, 2014, 20, 3472-3484).

A word on the IC50: it is the concentration that inhibits the measured activity by half. A higher IC50 goes with weaker potency in that assay.

On to `CCCCCCCCOC(=O)CCc1c(C)[nH]c(/C=C2\N=C(c3ccc[nH]3)C=C2OC)c1C` [PG3-Oc, Octyl (Z)-3-(5-((4′-methoxy-1H,5′H-[2,2′-bipyrrol]-5′-ylidene)methyl)-2,4-dimethyl-1H-pyrrol-3-yl)propanoate], for which the 50% inhibitory concentration (IC50) with DLD1 was 0.054 µM; with HCT116 p53−/−, 0.0411 µM; with FaDu, 0.066 µM; in the assay with PANC-1 it was 0.136 µM; with MDA-MB-468 it was 0.0976 µM; with H1975, 0.19 µM. Besides, the “potency for inhibition of cancer cell growth” value in assay [1] (HCT116 and SW480, 72 hours, comparison with prodigiosin and obatoclax) is “comparable with prodigiosin (P) and obatoclax (Ob); also recorded: comparable to prodigiosin and obatoclax”. Moreover, the IC50 values entry in assay [1] (panel of human cancer cell lines with mutant p53, 72 hours) is “within the nano-molar range”. The “induction of p21 mRNA” value with HT29 cells was “Over 3 fold”. For the same molecule, in [2], the “level of PUMA and DR5 induced compared to 40 μM regorafenib” value was “much higher level of PUMA and DR5”.
